Experimental data as given in patent US8759535B2, “Substituted fused imidazole derivatives, pharmaceutical compositions, and methods of use thereof” (High Point Pharmaceuticals, LLC, priority 2010, dated 2014).
Where a name gives a salt, the structure may show the parent alone.

Tested on: HMOX1
Assay: HMOX1 Protein Assay (immunostaining of HO-1 in NHLF cells, GE InCell 1000)
Assay type: cell-based
Details: Homo sapiens, fold change above DMSO treated cells, 5 μM compound, 16 h
Method in brief: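 Fold induction of HO-1 over vehicle, normally at 5 μM compound (asterisk marks 3 μM), in 0.8% DMSO medium. Normal human lung fibroblasts were treated 16 h, then paraformaldehyde-fixed, anti-HO-1/Alexa 488 stained with Hoechst, and read by high-content imaging.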

Compound	fold induction at 5 µM
CCNC(=O)[C@H](C)NC(=O)c1ccc2c(c1)nc(Nc1nc3ccc(OC(F)(F)F)cc3s1)n2C [Example 81, 1-Methyl-2-(6-trifluoromethoxy-benzothiazol-2-ylamino)-1H-benzoimidazole-5-carboxylic acid ((S)-1-ethylcarbamoyl-ethyl)-amide]	17
CN(C)CCNC(=O)c1ccc2c(c1)nc(Nc1nc3ccc(OC(F)(F)F)cc3s1)n2C [Example 82, 1-Methyl-2-(6-trifluoromethoxy-benzothiazol-2-ylamino)-1H-benzoimidazole-5-carboxylic acid (2-dimethylamino-ethyl)-amide]	17
Cn1c(Nc2nc3ccc(OC(F)(F)F)cc3s2)nc2cc(C(=O)NCC(=O)O)ccc21 [Example 83, {[1-Methyl-2-(6-trifluoromethoxy-benzothiazol-2-ylamino)-1H-benzoimidazole-5-carbonyl]-amino}-acetic acid]	1.25
CNC(=O)c1ccc2c(c1)nc(Nc1nc3ccc(C(F)(F)F)cc3s1)n2C [Example 84, 1-Methyl-2-(6-trifluoromethyl-benzothiazol-2-ylamino)-1H-benzoimidazole-5-carboxylic acid methylamide]	19
CCOCCNC(=O)c1ccc2c(c1)nc(Nc1nc3ccc(C(F)(F)F)cc3s1)n2C [Example 85, 1-Methyl-2-(6-trifluoromethyl-benzothiazol-2-ylamino)-1H-benzoimidazole-5-carboxylic acid (2-ethoxy-ethyl)-amide]	11.6
CNC(=O)c1ccc2c(c1)nc(Nc1nc3cc(F)c(F)cc3s1)n2C [Example 86, 2-(5,6-Difluoro-benzothiazol-2-ylamino)-1-methyl-1H-benzoimidazole-5-carboxylic acid methylamide]	9.7
CCOCCNC(=O)c1ccc2c(c1)nc(Nc1nc3cc(F)c(F)cc3s1)n2C [Example 87, 2-(5,6-Difluoro-benzothiazol-2-ylamino)-1-methyl-1H-benzoimidazole-5-carboxylic acid (2-ethoxy-ethyl)-amide]	12.1
CNC(=O)c1ccc2c(c1)nc(Nc1nc3ccc(Cl)cc3s1)n2C [Example 88, 2-(6-Chloro-benzothiazol-2-ylamino)-1-methyl-1H-benzoimidazole-5-carboxylic acid methylamide]	13
CCOCCNC(=O)c1ccc2c(c1)nc(Nc1nc3ccc(Cl)cc3s1)n2C [Example 89, 2-(6-Chloro-benzothiazol-2-ylamino)-1-methyl-1H-benzoimidazole-5-carboxylic acid (2-ethoxy-ethyl)-amide]	23.7
Cn1c(Nc2nc3ccc(OC(F)(F)F)cc3s2)nc2cc(C(=O)NC3CCN(S(C)(=O)=O)CC3)ccc21 [Example 90, 1-Methyl-2-(6-trifluoromethoxy-benzothiazol-2-ylamino)-1H-benzoimidazole-5-carboxylic acid (1-methanesulfonyl-piperidin-4-yl)-amide]	8.1
Cn1c(Nc2nc3ccc(OC(F)(F)F)cc3s2)nc2cc(C(=O)NCC(=O)OC(C)(C)C)ccc21 [Example 91, {[1-Methyl-2-(6-trifluoromethoxy-benzothiazol-2-ylamino)-1H-benzoimidazole-5-carbonyl]-amino}-acetic acid tert-butyl ester]	10.1
Cn1c(Nc2nc3ccc(OC(F)(F)F)cc3s2)nc2cc(C(=O)NC3CCN(C(=O)OC(C)(C)C)CC3)ccc21 [Example 92, 4-{[1-Methyl-2-(6-trifluoromethoxy-benzothiazol-2-ylamino)-1H-benzoimidazole-5-carbonyl]-amino}-piperidine-1-carboxylic acid tert-butyl ester]	3.4
Cn1c(Nc2nc3ccc(OC(F)(F)F)cc3s2)nc2cc(C(=O)NC3CCNCC3)ccc21 [Example 93, 1-Methyl-2-(6-trifluoromethoxy-benzothiazol-2-ylamino)-1H-benzoimidazole-5-carboxylic acid piperidin-4-ylamide hydrochloride]	11.3
Cn1c(Nc2nc3ccc(OC(F)(F)F)cc3s2)nc2cc(C(=O)NC3CCCN(C(=O)OC(C)(C)C)C3)ccc21 (centres unmarked) [Example 94, 3-{[1-Methyl-2-(6-trifluoromethoxy-benzothiazol-2-ylamino)-1H-benzoimidazole-5-carbonyl]-amino}-piperidine-1-carboxylic acid tert-butyl ester]	1.2
Cn1c(Nc2nc3ccc(OC(F)(F)F)cc3s2)nc2cc(C(=O)NC3CCCNC3)ccc21 (centres unmarked) [Example 95, 1-Methyl-2-(6-trifluoromethoxy-benzothiazol-2-ylamino)-1H-benzoimidazole-5-carboxylic acid piperidin-3-ylamide hydrochloride]	11.2
Cn1c(Nc2nc3ccc(OC(F)(F)F)cc3s2)nc2cc(C(=O)NCc3nccs3)ccc21 [Example 96, 1-Methyl-2-(6-trifluoromethoxy-benzothiazol-2-ylamino)-1H-benzoimidazole-5-carboxylic acid (thiazol-2-ylmethyl)-amide]	12

Compound	fold induction at 5 µM
COC(=O)CCNC(=O)c1ccc2c(c1)nc(Nc1nc3ccc(OC(F)(F)F)cc3s1)n2C [Example 97, 3-{[1-Methyl-2-(6-trifluoromethoxy-benzothiazol-2-ylamino)-1H-benzoimidazole-5-carbonyl]-amino}-propionic acid methyl ester]	19.2
Cn1c(Nc2nc3ccc(OC(F)(F)F)cc3s2)nc2cc(C(=O)NCCC(=O)O)ccc21 [Example 98, 3-{[2-(6-Trifluoromethoxy-benzothiazol-2-ylamino)-1-methyl-1H-benzimidazole-5-carbonyl]-amino}-propionic acid]	13.8
COC(=O)c1ccc2c(c1)nc(Nc1nc3cc(OC(F)(F)F)ccc3s1)n2C [Example 99, 1-Methyl-2-(5-trifluoromethoxy-benzothiazol-2-ylamino)-1H-benzoimidazole-5-carboxylic acid methyl ester]	8.5
CC(=O)NCCNC(=O)c1ccc2c(c1)nc(Nc1nc3ccc(OC(F)(F)F)cc3s1)n2C [Example 100, 1-Methyl-2-(6-trifluoromethoxy-benzothiazol-2-ylamino)-1H-benzoimidazole-5-carboxylic acid (2-acetylamino-ethyl)-amide]	25.9
CSCCNC(=O)c1ccc2c(c1)nc(Nc1nc3ccc(OC(F)(F)F)cc3s1)n2C [Example 101, 1-Methyl-2-(6-trifluoromethoxy-benzothiazol-2-ylamino)-1H-benzoimidazole-5-carboxylic acid (2-methylsulfanyl-ethyl)-amide]	11.2
Cn1c(Nc2nc3ccc(OC(F)(F)F)cc3s2)nc2cc(C(=O)NCCS(C)(=O)=O)ccc21 [Example 102, 1-Methyl-2-(6-trifluoromethoxy-benzothiazol-2-ylamino)-1H-benzoimidazole-5-carboxylic acid (2-methanesulfonyl-ethyl)-amide]	22.6
Cn1c(Nc2nc3ccc(OC(F)(F)F)cc3s2)nc2cc(C(=O)NCCNC(=O)OC(C)(C)C)ccc21 [Example 103, (2-{[1-Methyl-2-(6-trifluoromethoxy-benzothiazol-2-ylamino)-1H-benzoimidazole-5-carbonyl]-amino}-ethyl)-carbamic acid tert-butyl ester]	9
Cn1c(Nc2nc3ccc(OC(F)(F)F)cc3s2)nc2cc(C(=O)NCCN)ccc21 [Example 104, 1-Methyl-2-(6-trifluoromethoxy-benzothiazol-2-ylamino)-1H-benzoimidazole-5-carboxylic acid (2-amino-ethyl)-amide hydrochloride]	16.3
CNCCNC(=O)c1ccc2c(c1)nc(Nc1nc3ccc(OC(F)(F)F)cc3s1)n2C [Example 105, 1-Methyl-2-(6-trifluoromethoxy-benzothiazol-2-ylamino)-1H-benzoimidazole-5-carboxylic acid (2-methylamino-ethyl)-amide]	17.5
CN(C)N(C)C(=O)c1ccc2c(c1)nc(Nc1nc3ccc(OC(F)(F)F)cc3s1)n2C [Example 106, 1-Methyl-2-(6-trifluoromethoxy-benzothiazol-2-ylamino)-1H-benzimidazole-5-carboxylic acid trimethylhydrazide]	23.8
CCSCCNC(=O)c1ccc2c(c1)nc(Nc1nc3ccc(OC(F)(F)F)cc3s1)n2C [Example 107, 1-Methyl-2-(6-trifluoromethoxy-benzothiazol-2-ylamino)-1H-benzoimidazole-5-carboxylic acid (2-ethylsulfanyl-ethyl)-amide]	18.6
CSCCCNC(=O)c1ccc2c(c1)nc(Nc1nc3ccc(OC(F)(F)F)cc3s1)n2C [Example 108, 1-Methyl-2-(6-trifluoromethoxy-benzothiazol-2-ylamino)-1H-benzoimidazole-5-carboxylic acid (3-methylsulfanyl-propyl)-amide]	18.3
CCS(=O)(=O)CCNC(=O)c1ccc2c(c1)nc(Nc1nc3ccc(OC(F)(F)F)cc3s1)n2C [Example 109, 1-Methyl-2-(6-trifluoromethoxy-benzothiazol-2-ylamino)-1H-benzimidazole-5-carboxylic acid (2-ethanesulfonyl-ethyl)-amide]	20.9
Cn1c(Nc2nc3ccc(OC(F)(F)F)cc3s2)nc2cc(C(=O)NCCCS(C)(=O)=O)ccc21 [Example 110, 1-Methyl-2-(6-trifluoromethoxy-benzothiazol-2-ylamino)-1H-benzimidazole-5-carboxylic acid (3-methanesulfonyl-propyl)-amide]	26.3
COC(=O)c1ccc2c(c1)nc(Nc1nc3cc(F)ccc3s1)n2C [Example 111, 2-(5-Fluoro-benzothiazol-2-ylamino)-1-methyl-1H-benzoimidazole-5-carboxylic acid methyl ester]	17.6
COC(=O)c1ccc2c(c1)nc(Nc1nc3ccc(F)cc3s1)n2C [Example 112, 2-(6-Fluoro-benzothiazol-2-ylamino)-1-methyl-1H-benzoimidazole-5-carboxylic acid methyl ester]	17.5
